Results from US11366103B2, “Multi-well micropatterning by ablation” (Massachusetts Institute of Technology, priority 2006, dated 2022).
Where two headings read alike, the source gives them in different places.

Columns and labels:
[1] = tested on: micropatterned co-cultures of primary human hepatocytes and 3T3-J2 fibroblasts
Protocol: Mitochondrial toxicity was evaluated using the MTT assay. […] All data were normalized to a vehicle-only control. […] Tissues were dosed repeatedly every 48 hours. All data was normalized to mitochondrial activity in untreated cultures (100% activity).
In order to assess the utility of micropatterned co-cultures for toxicity screening, the acute and chronic toxicity of model hepatotoxins was quantified. […] Establishment of liver tissue that is stable over several weeks is crucial for evaluating chronic toxicity due to repeated exposures.
Cultures were incubated with various concentrations of compounds dissolved in culture medium for 24 hours (acute toxicity) or extended time periods (chronic toxicity, 1-9 days). Cell viability was subsequently measured via the MTT (3-(4,5-dimethylthiazol-2-yl)-2,5-diphenyl tetrazolium bromide; Sigma) assay, which involves cleavage of the tetrazolium ring by mitochondrial dehydrogenase enzymes to form a purple precipitate. MTT was added to cells in DMEM without phenol red at a concentration of 0.5 mg/mL. After an incubation time of 1 hour, the purple precipitate was dissolved in a 1:1 solution of DMSO and Isopropanol. The absorbance of the solution was measured at 570 nm (SpectraMax spectrophotometer, Molecular Devices, Sunnyvale, Calif.).

[2] = tested on: co-cultures of primary rat hepatocytes and 3T3-J2 fibroblasts; settings: for viability relative to untreated controls: 1 mM
Protocol: Toxicity of pharmaceuticals due to chronic exposure is clinically relevant. Since hepatocyte culture models utilized in the pharmaceutical industry lose viability and phenotypic functions within a few days, toxicity due to repeated drug exposures over days or weeks cannot be evaluated. […] Co-cultures were incubated with varying doses of toxins dissolved in culture medium over several days. Mitochondrial activity (MTT assay, see methods) was evaluated at different time points to assess viability in co-cultures.
Pure hepatocyte monolayers rapidly lose phenotypic functions and thus represent an ‘unstable’ model of the liver. […] The objective here was to compare toxicity of model Hepatotoxins in pure hepatocyte monolayers and co-cultures. Pure hepatocyte monolayers (Day 2 of culture) or hepatocyte-fibroblast co-cultures (Day 13) prepared from the same rat liver were treated with Hepatotoxins for 24 hours, after which viability was assessed via the MTT assay.
All chemicals were purchased from Sigma. In order to evaluate the acute toxicity of compounds, cultures were incubated with various concentrations of compounds dissolved in culture medium for 24 hours. For chronic studies, culture media with fresh Hepatotoxins was added every 2 days. Cell viability at different time points was subsequently measured via the MTT assay.

[3] = tested on: pure hepatocyte monolayers; settings: rat, 24 h; for viability relative to untreated controls: 1 mM
[4] = tested on: CYP2A; assay: Coumarin 7-hydroxylation in micropatterned rat co-cultures; format: in vitro ADME
Excerpt: (§1) FIGS. 33A-33C depict a comparison of Phase I- and Phase II-mediated substrate metabolism in human and rat co-cultures. Micropatterned cultures with either primary human or primary rat hepatocytes were created using the stencil-based process. Subsequent addition of 3T3-J2 fibroblasts created co-cultures. […] Data from a single representative day is shown.
(§2) Significant variations in hepatocellular functions (i.e. CYP450 enzymes) across different species have been implicated in the inability of animal models to adequately predict adverse outcomes in clinical trials involving humans. Nonetheless, studies in live animals are required by the FDA since they provide valuable in vivo data in a preclinical setting. Therefore, the selection of an animal species (i.e. rat, mouse, monkey, guinea pig) in which the liver-specific metabolism and toxicity of a particular candidate drug are similar to that seen in humans is crucial for clinical success. In vitro human and animal models that closely resemble in-vivo functionality may find use in such a selection process. […] For instance, BFC was dealkylated in rat co-cultures at a rate (pmoles/min/10^6 cells) that was ˜18 fold greater than the rate seen in human co-cultures.
Spent media was stored at −20° C.

[5] = target: T1, CYP2A (Homo sapiens, UniProt P11509); assay: Coumarin 7-hydroxylation in micropatterned human co-cultures; format: in vitro ADME
T1 construct: endogenous in cells; host or cells: primary human hepatocytes co-cultured with murine 3T3-J2 fibroblasts
T1 sequence (P11509 1-494): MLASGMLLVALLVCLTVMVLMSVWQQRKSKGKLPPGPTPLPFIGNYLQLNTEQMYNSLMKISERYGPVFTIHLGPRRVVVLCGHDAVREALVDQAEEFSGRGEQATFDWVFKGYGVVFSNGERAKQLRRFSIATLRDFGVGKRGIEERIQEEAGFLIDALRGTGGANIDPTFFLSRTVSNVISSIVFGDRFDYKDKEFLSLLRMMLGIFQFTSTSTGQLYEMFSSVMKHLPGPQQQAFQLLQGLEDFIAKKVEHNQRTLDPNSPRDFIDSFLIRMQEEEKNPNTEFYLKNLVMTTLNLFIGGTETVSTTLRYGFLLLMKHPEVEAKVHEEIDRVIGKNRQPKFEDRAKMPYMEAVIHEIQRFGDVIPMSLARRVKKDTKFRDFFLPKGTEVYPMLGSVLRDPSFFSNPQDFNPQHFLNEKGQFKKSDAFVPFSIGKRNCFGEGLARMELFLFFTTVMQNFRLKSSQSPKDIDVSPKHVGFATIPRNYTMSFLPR
Excerpt: as §1, §2

[6] = tested on: CYP3A; assay: Inhibition of BFC dealkylation in rat co-cultures; settings: BFC in the presence of ketoconazole
[7] = tested on: CYP450 enzymes; assay: CYP450-mediated dealkylation of BFC and MFC in micropatterned rat co-cultures; format: in vitro ADME
Protocol: Therefore, in order to improve the signal-to-noise ratio, levels of CYP1A was ‘induced’ by pre-incubating co-cultures with 3 μM 3-Methylcholanthrene (3-MC) for 3 days prior to assessment of substrate metabolism. […] ER and MR are fluorimetric substrates specific for CYP1A enzymes. […] Use of non-specific substrates provides for an ‘average’ value of CYP450 activity, and is useful to determine whether CYP450 enzymes are functional in a particular system. In FIG. 22A, co-cultures were able to successfully dealkylate BFC and MFC into 7-HFC. […] CYP450 enzymes are oxido-reductases that are part of the Phase I metabolic pathway in hepatocytes. The phase II family of enzymes, on the other hand, is typically involved in the conjugation of highly polar moieties (i.e. sulfate group, glucuronic acid) to xenobiotics to make them water-soluble for excretion out of the body via bile or through the kidneys. A useful substrate for evaluating conjugation reactions is the fluorescent substrate, 7-Hydroxycoumarin (7-HC), which gets modified to non-fluorescent compounds, 7-HC-Glucuronide and 7-HC-Sulfate. The level of conjugation can then be quantified by using bacterial-derived β-glucuronidase and aryl-sulfatase enzymes to ‘deconjugate’ the Phase II products and recover 7-HC fluorescence. In our micropatterned rat co-cultures, we observed time-dependent conjugation of 7-HC by Phase-II enzymes (FIG. 22B). […]

[8] = target: T2, CYP2A6 (Homo sapiens, UniProt P11509)
T2 sequence (P11509 1-494): T1 sequence (P11509 1-494)

[9] = tested on: CYP1A
Protocol: Cultures were treated for 3-4 days before incubation with fluorometric or conventional CYP450 substrates. All data was normalized to vehicle-only controls (fold change of 1). […] Substrate/inhibitor combinations: BFC/ketoconazole (CYP3A4), MFC/sulfaphenazole (CYP2C9), Coumarin/methoxsalen (CYP2A6), and 7-Hydroxycoumarin/Salicylamide (Glucuronidation). […] Data were normalized to vehicle-only controls.
Stock solutions of prototypic CYP450 inducers (Sigma) were made in Dimethylsulfoxide (DMSO), except for Phenobarbital, which was dissolved in water. […] Control cultures were treated with vehicle (DMSO) alone for calculations of fold induction. To enable comparisons across inducers, DMSO levels were kept constant at 0.1% (v/v) for all conditions.

[10] = tested on: CYP1A2; assay: Dose and time-dependent CYP1A2 induction in micropatterned co-cultures; settings: incubation for 1 or 3 days

With `Cc1c(C)c2c(c(C)c1O)CCC(C)(COc1ccc(CC3SC(=O)NC3=O)cc1)O2` (centres unmarked) [troglitazone] the chronic toxicity [1] was “dose and time-dependent toxicity”, the “relative toxicity in pure monolayers versus co-cultures” value (from here on “relative toxicity”) [2] was “more toxic to co-cultures as compared to pure monolayers” and the reduction of viability ([2]; rat, 24 h, 170 μM) was about 44%. The “concentration giving ~44% reduction of viability” value [3] was 227 µM.

With `O=c1ccc2ccccc2o1` [coumarin] the coumarin hydroxylation [4] was “unable to hydroxylate coumarin” and the “rate of coumarin hydroxylation” value [5] was “greater than 6 pmol/min/10^6 cells”.

`COc1ccc(CN(CCN(C)C)c2ccccn2)cc1` [pyrilamine] was tested, and the “relative toxicity” value [2] was “more toxic to pure monolayers as compared to co-cultures”, the TC50 ([2]; rat, 24 h) was 1000 to 1200 µM and the “viability relative to untreated controls” value ([2]; rat, 24 h) was “greater than 80%”. The TC50 ([2]; rat, 7 days) was about 200 µM and the “viability relative to untreated controls” value [3] was “less than 6%”.

In the case of `CC(=O)N1CCN(c2ccc(OCC3COC(Cn4ccnc4)(c4ccc(Cl)cc4Cl)O3)cc2)CC1` (centres unmarked) [ketoconazole], the “inhibition of BFC dealkylation” value [6] is reported as about 33%.

With `O=c1cc(C(F)(F)F)c2ccc(OCc3ccccc3)cc2o1` [BFC] the “rate of BFC metabolism relative to rate of MFC metabolism” value ([7]; rat co-cultures, day 14) was about 12 fold and the “rate of BFC dealkylation in rat relative to human co-cultures” value ([7]; rat, human) was about 18 fold.

In the case of `COc1c2occc2cc2ccc(=O)oc12` [Methoxsalen], the “inhibition of CYP2A6 activity” value [8] is reported as “dose-dependent inhibition”.

With `[Cd]` [cadmium] the “shape of dose-dependent acute toxicity profile” value ([1]; 24 hrs exposure, MTT) was “relatively linear toxic profile” and the “TC50 relative to other compounds” value ([1]; concentration producing 50% reduction in mitochondrial activity (MTT) after 24 hours exposure) was “three orders-of-magnitude lower than the TC50 values for aspirin and caffeine”.

`COc1ccc2[nH]c([S+]([O-])Cc3ncc(C)c(OC)c3C)nc2c1` (centres unmarked) [Omeprazole] was tested, and the “CYP1A induction, effectiveness in human over rat models” value [9] was 8 fold.

`O=c1cc(-c2ccccc2)oc2ccc3ccccc3c12` [β-Naphthoflavone] was tested, and the “induction of CYP1A2 activity” value [10] was “induced CYP1A2 activity in a dose and time-dependent manner”.

In the case of `CN(C)CCN(Cc1cccs1)c1ccccn1` [methapyrilene], the “relative toxicity” value [2] is reported as “more toxic to pure monolayers as compared to co-cultures”, the TC50 ([2]; rat, 24 h) is reported as 1400 to 1600 µM and the “viability relative to untreated controls” value ([2]; rat, 24 h) is reported as “greater than 80%”. The “viability relative to untreated controls” value [3] was “less than 6%”.
